Results: article PMC11898958, “Application of Biomimetic Chromatography and QSRR Approach for Characterizing Organophosphate Pesticides” (International Journal of Molecular Sciences, 2025)
Where two headings read alike, the source gives them in different places.

Columns and labels:
[1] = Chromatographic lipophilicity by RP-HPLC on C18 column (CHIC18); type: physicochemical
Procedure: (§1) Elution was conducted under the following conditions:
(§2) The injected volume was 10 μL. […] Each sample was analyzed three times.

human serum albumin = human serum albumin (Homo sapiens, UniProt P02768)
Procedure: Each column was equipped with an appropriate precolumn. Elution was conducted under the following conditions:

[2] = Affinity to phospholipids by IAM-HPLC (IAM.PC.DD2 column); type: physicochemical
Procedure: as §1, §2

[3] = C18 XTERRA RP18 column, acetonitrile gradient, 50 mM ammonium acetate pH 7.4, 30 °C
[4] = HSA column, isopropanol gradient, 50 mM ammonium acetate pH 7.4, 30 °C
[5] = IAM.PC.DD2 column, acetonitrile gradient, 50 mM ammonium acetate pH 7.4, 30 °C

Chain of human serum albumin (P02768 25-609): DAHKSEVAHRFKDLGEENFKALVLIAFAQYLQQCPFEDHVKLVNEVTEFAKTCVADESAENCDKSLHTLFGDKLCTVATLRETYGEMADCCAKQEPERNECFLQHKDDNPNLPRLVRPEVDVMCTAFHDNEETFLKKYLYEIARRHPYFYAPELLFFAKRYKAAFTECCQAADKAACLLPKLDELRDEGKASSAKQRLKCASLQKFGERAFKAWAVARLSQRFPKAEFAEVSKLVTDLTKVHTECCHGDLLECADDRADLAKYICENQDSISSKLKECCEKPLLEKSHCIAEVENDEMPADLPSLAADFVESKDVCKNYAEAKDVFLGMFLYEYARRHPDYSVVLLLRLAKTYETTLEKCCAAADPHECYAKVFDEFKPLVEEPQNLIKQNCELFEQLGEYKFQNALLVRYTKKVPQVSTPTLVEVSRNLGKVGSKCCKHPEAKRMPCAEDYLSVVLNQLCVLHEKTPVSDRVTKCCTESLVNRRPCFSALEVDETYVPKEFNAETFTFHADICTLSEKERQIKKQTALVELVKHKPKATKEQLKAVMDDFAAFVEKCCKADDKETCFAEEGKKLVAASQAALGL

Row | Compound | CHIC18 (chromatographic hydrophobicity index of RP-HPLC) [1, 3] | %HSA (binding to HSA) (human serum albumin; [4]) | LogkHSA (chromatographically determined affinity to HSA-HPLC) (human serum albumin; [4]) | CHIIAM (chromatographic hydrophobicity index of IAM-HPLC) [2, 5] | also measured
1 | COP(=S)(OC)SCn1nnc2ccccc2c1=O [Azinphos-methyl] | 83.47 | 86.70% | 0.78 | 33.18 | –
2 | COP(=S)(OC)Oc1ccc([N+](=O)[O-])c(C)c1 [Fenitrothion] | 93.49 | 91.78% | 1.00 | 38.10 | –
3 | COP(=S)(OC)Oc1ccc(SC)c(C)c1 [Fenthion] | 102.16 | 96.04% | 1.29 | 42.37 | %HSA (binding to HSA) (human serum albumin; HSA column, isopropanol gradient, 50 mM ammonium acetate pH 7.4, 30 °C, listed as fenthion): highest protein-binding capacity; CHIIAM (chromatographic hydrophobicity index of IAM-HPLC) ([2]; IAM.PC.DD2 column, acetonitrile gradient, 50 mM ammonium acetate pH 7.4, 30 °C, listed as fenthion): highest CHIIAM values
4 | Chlorpyrifos-oxon | 39.17 | – | 0.68 | 24.96 | %HSA (binding to HSA) (human serum albumin; pH 7.4): 83.49%
5 | CCOP(=S)(OCC)Oc1cnc2ccccc2n1 [Quinalphos] | 101.01 | 91.23% | 0.97 | 39.40 | CHIC18 (chromatographic hydrophobicity index of RP-HPLC) ([1]; C18 XTERRA RP18 column, acetonitrile gradient, 50 mM ammonium acetate pH 7.4, 30 °C, listed as quinalphos): remarkably high lipophilicity
6 | CCOP(=S)(OCC)SCn1nnc2ccccc2c1=O [Azinphos-ethyl] | 95.69 | 92.07% | 1.01 | 37.81 | –
7 | COP(=O)(OC)OC(Br)C(Cl)(Cl)Br (centres unmarked) [Naled] | 31.32 | 43.86% | −0.11 | 29.79 | CHIC18 (chromatographic hydrophobicity index of RP-HPLC) ([1]; C18 XTERRA RP18 column, acetonitrile gradient, 50 mM ammonium acetate pH 7.4, 30 °C, listed as naled): low lipophilicity
8 | CCCSP(=O)(OCC)SCCC [Ethoprophos] | – | – | – | – | CHIC18 (chromatographic hydrophobicity index of RP-HPLC) ([1]; pH 7.4): 88.39; %HSA (binding to HSA) (human serum albumin; human, pH 7.4): 28.35%; LogkHSA (chromatographically determined affinity to HSA-HPLC) (human serum albumin; human, pH 7.4): −0.41; CHIIAM (chromatographic hydrophobicity index of IAM-HPLC) ([2]; pH 7.4): 32.41
9 | CCOP(=O)(OCC)OC(=CCl)c1ccc(Cl)cc1Cl [Chlorfenvinphos] | 97.18 | 85.54% | 0.74 | 38.13 | –
10 | CCOC(=O)N(C)C(=O)CSP(=S)(OCC)OCC [Mecarbam] | 97.09 | 74.23% | 0.44 | 35.77 | –
11 | COP(=S)(OC)Oc1ccc([N+](=O)[O-])cc1 [Parathion-methyl] | 88.75 | 87.94% | 0.83 | 35.54 | –
12 | COP(=S)(OC)SCN1C(=O)c2ccccc2C1=O [Phosmet] | 85.39 | 87.23% | 0.80 | 33.89 | –
13 | CCOP(=S)(OCC)SCSCC [Phorate] | 108.36 | 93.08% | 1.07 | 42.43 | CHIIAM (chromatographic hydrophobicity index of IAM-HPLC) ([2]; IAM.PC.DD2 column, acetonitrile gradient, 50 mM ammonium acetate pH 7.4, 30 °C, listed as phorate): highest CHIIAM values
14 | CCOP(=O)(OCC)Oc1ccc([N+](=O)[O-])cc1 [Paraoxon-ethyl] | 72.54 | 27.68% | −0.42 | 25.34 | –
15 | CCOP(=S)(OCC)SCCSCC [Disulfoton] | 108.97 | 92.86% | 1.06 | 42.34 | CHIC18 (chromatographic hydrophobicity index of RP-HPLC) ([1]; C18 XTERRA RP18 column, acetonitrile gradient, 50 mM ammonium acetate pH 7.4, 30 °C, listed as disulfoton): remarkably high lipophilicity; CHIIAM (chromatographic hydrophobicity index of IAM-HPLC) ([2]; IAM.PC.DD2 column, acetonitrile gradient, 50 mM ammonium acetate pH 7.4, 30 °C, listed as disulfoton): highest CHIIAM values
16 | COP(=O)(OC)OC=C(Cl)Cl [Dichlorvos] | 23.17 | 65.86% | 0.27 | 16.56 | CHIC18 (chromatographic hydrophobicity index of RP-HPLC) ([1]; C18 XTERRA RP18 column, acetonitrile gradient, 50 mM ammonium acetate pH 7.4, 30 °C, listed as dichlorvos): low lipophilicity
17 | CCOP(=S)(OCC)Oc1cc(C)nc(C(C)C)n1 [Diazinon] | 105.98 | 81.33% | 0.62 | 39.34 | CHIC18 (chromatographic hydrophobicity index of RP-HPLC) ([1]; C18 XTERRA RP18 column, acetonitrile gradient, 50 mM ammonium acetate pH 7.4, 30 °C, listed as diazinon): remarkably high lipophilicity
